Measured values published in US20260347372A1, “SMALL MOLECULE INHIBITORS OF KRAS G12D MUTANT” (MERCK SHARP & DOHME LLC, priority 2023, published 2026).

What was measured:
[1] = molecular target: KRAS G12D (Homo sapiens, UniProt P01116, G12D); assay: SOS-catalyzed nucleotide exchange assay, KRAS G12D (Procedure A); format: biochemical; settings: guanine nucleotide exchange (GNE)
Description: (§1) Procedure for SOS-Catalyzed Nucleotide Exchange Assay for KRAS-WT, G12C/D/V, G13D, HRAS, and NRAS (Procedure A)
(§2) Recombinant KRAS-G12C protein used in this assay has an additional triple mutation (C51S/C80L/C118S). Whereas KRAS-WT, G12D/V, G13D, HRAS and NRAS are in context of their WT protein sequence background. Specifically, the SOS-catalyzed nucleotide exchange assay utilizes a preformed TR-FRET complex containing a specific biotinylated RAS protein (KRAS-WT, G12C/V/D, G13D, HRAS, NRAS; described above) with Bodipy-GDP, and Terbium-streptavidin. Compounds are preincubated with this complex for 60 minutes. Subsequently, recombinant human SOS protein and unlabeled GTP are added to initiate the exchange reaction. Small molecule inhibitors stabilize the Bodipy-GDP complex whereas the untreated protein rapidly exchanges Bodipy-GDP for unlabeled GTP resulting in reduced TR-FRET signal.
(§3) To assemble the preformed TR-FRET complexes, each biotinylated RAS protein is diluted to 2 μM in an EDTA Buffer (20 mM HEPES pH 7.5, 50 mM sodium chloride, 10 mM EDTA, and 0.01% Tween) and incubated at room temperature for one hour. This mixture is then further diluted to 90 nM in an Assay Buffer (20 mM HEPES pH 7.5, 150 mM sodium chloride, 10 mM magnesium chloride, and 0.005% Tween) containing 15 nM of Terbium-Streptavidin (Invitrogen, catalog #PV3577) and 900 nM of Bodipy-GDP (Invitrogen, catalog #G22360) and incubated at room temperature for six hours. It should be noted that this preformed TR-FRET complex for each of the RAS protein were made ahead of time, aliquoted and stored at −80° C. until the day of the experiment.
(§4) Each test compound (10 mM stock in DMSO) is diluted in DMSO to make a final-10-point, 3-fold dilution and is acoustically dispensed into a 384-well assay plate (Corning, catalog #3820) using an Echo 550 (Labcyte). Each well of the assay plate receives 3 μL of a specific 3×RAS preformed TR-FRET complex and 3 μL of Assay Buffer and is incubated at room temperature for 60 minutes (preincubation time). Each well then receives 3 μL of 3× recombinant human SOS protein and GTP (Sigma, G8877) in Assay Buffer and is incubated at room temperature for 30 minutes (G13D), 60 minutes (KRAS WT/G12C/D, H/NRAS) or 90 minutes for G12V. The final reaction in each well of 9 μL consists of 3 mM GTP, specific Ras and SOS proteins in the following concentrations: KRAS-G12C/SOS=3 nM/40 nM, KRAS-WT and G12D/SOS=1 nM/40 nM, KRAS-G12V/SOS=1.25 nM/160 nM, KRAS-G13D/SOS=1.25 nM/0 nM, HRAS and NRAS=1.25 nM/40 nM.
(§5) The time-resolved fluorescence resonance energy transfer (TR-FRET) signal is measured on an Envision (PerkinElmer) plate reader: Excitation filter=340 nm; emission1=495 nm; emission2=520 nm; dichroic mirror=D400/D505; delay time=[…]. The signal of each well is determined as the ratio of the emission at 520 nm to that at 495 nm. Percent effect of each well is determined after normalization to control wells containing DMSO (no effect) or a saturating concentration of inhibitor (max effect). The apparent effect as a function of compound concentration is fit to a four-parameter logistic equation.
(§6) For Example No. 14, nucleotide exchange assays for KRAS G12D, WT, G12C, and G12V were performed according to Procedure B. All the other compounds were tested according to Procedure A.

[2] = molecular target: KRAS WT (Homo sapiens, UniProt P01116); assay: SOS-catalyzed nucleotide exchange assay, KRAS WT (Procedure A); format: biochemical; settings: GNE
Description: as §1, §2, §3, §4, §5, §6

[3] = molecular target: KRAS G12V (Homo sapiens, UniProt P01116, G12V); assay: SOS-catalyzed nucleotide exchange assay, KRAS G12V (Procedure A); format: biochemical; settings: GNE
Description: as §1, §2, §3, §4, §5, §6

[4] = molecular target: T1, AsPC-1 cells (Homo sapiens, UniProt P01116, G12D); assay: Cellular phospho-ERK assay, AsPC-1 cells (KRAS G12D); format: cell-based; settings: 2 hours, read-out: AsPC1 pERK IC50
T1 construct: p-ERK/total ERK AlphaSureFire read-out
Protocol: Procedure for Cellular Phospho-ERK Assay in KRAS Wild Type and Mutant (G12D, G12V) Cell Lines
PANC08.13 cells (ATCC® CRL-2551™), containing homozygous KRAS-G12D activating mutation, were cultured in growth medium made of RPMI1640-GlutaMAX™-I (ThermoFisher Scientific 61870) containing 15% heat inactivated fetal bovine serum (ThermoFisher Scientific 10091148)). AsPC-1 cells (ATCC® CRL-1682™), containing homozygous KRAS-G12D activating mutation, were cultured in T150 flask in growth medium (RPMI medium 1640-GlutaMAX™-I (ThermoFisher Scientific 61870) containing 10% fetal bovine serum (ThermoFisher Scientific 10091148)).
Cells for the assay were harvested in growth medium after TrypLE (ThermoFisher scientific 12604021) digestion and were seeded in a 384-well collagen coated cell culture plate (Corning 356702) at a density of 10,000-15,000 cells/20 μL/well, and incubated at 37° C., 5% CO2 overnight. The compound (with 10 mM stock concentration) dose-response titrations were prepared [30 μM final ERK detection assay concentration and 1:3 dilutions, 10-point dose response] and appropriate amounts (270 nL) of test compounds were dispensed in a 384-well intermediate plate using an Echo 550 liquid handler. 30 μL/well of RPMI medium 1640-GlutaMAX™-I was added to the intermediate plate and the contents of the intermediate plate (10 μL/well) were then transferred to the 384-well collagen coated cell culture plate, which was incubated at 37° C., 5% CO2 for 2 hours. After removal of medium from the collagen coated cell culture plate, cells were lysed in lysis buffer from Alpha SureFire® Ultra™ Multiplex p-ERK and total ERK assay kit (PerkinElmer MPSU-PTERK) containing Halt™ Protease and Phosphatase inhibitor cocktail (ThermoFisher Scientific 78446) at room temperature with constant shaking at 300 rpm for 30 minutes. The cell lysates were then transferred to an OptiPlate-384 plate (PerkinElmer 6005620), and the phosphorylation of ERK (p-ERK) and total ERK levels were detected by Alpha SureFire® Ultra™ Multiplex p-EEK kit and total ERK assay kit (PerkinElmer MPSU-PTERK) following the manufacturer's protocol. Assay plates were read on a EnVision Multimode Plate Reader (PerkinElmer), and the ratio of p-ERK vs. total ERK in each well was used as the final readout. Dose response curves were analyzed using a 4-parameter logistic model to calculate IC50 values using Spotfire software.

KRAS WT, sequence (P01116 with tags, fused parts or gaps isoform P01116-2): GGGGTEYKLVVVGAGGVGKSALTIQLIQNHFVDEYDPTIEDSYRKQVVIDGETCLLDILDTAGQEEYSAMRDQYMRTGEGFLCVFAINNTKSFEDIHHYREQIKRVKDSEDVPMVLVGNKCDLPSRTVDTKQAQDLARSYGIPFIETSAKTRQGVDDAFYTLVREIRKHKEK
T1 sequence (P01116 1-188 isoform P01116-2 G12D): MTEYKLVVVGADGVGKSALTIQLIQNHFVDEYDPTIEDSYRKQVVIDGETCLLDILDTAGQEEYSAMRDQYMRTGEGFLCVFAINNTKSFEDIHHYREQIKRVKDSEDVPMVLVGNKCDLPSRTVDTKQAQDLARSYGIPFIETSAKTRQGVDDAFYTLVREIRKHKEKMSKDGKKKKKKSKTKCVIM
KRAS G12D, sequence (P01116 with tags, fused parts or gaps isoform P01116-2 G12D): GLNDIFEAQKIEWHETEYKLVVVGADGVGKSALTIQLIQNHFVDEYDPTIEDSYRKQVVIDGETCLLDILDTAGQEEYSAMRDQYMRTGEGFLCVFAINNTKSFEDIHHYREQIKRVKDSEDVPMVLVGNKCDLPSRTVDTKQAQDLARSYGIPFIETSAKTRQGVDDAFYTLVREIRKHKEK
KRAS G12V, sequence (P01116 with tags, fused parts or gaps isoform P01116-2 G12V): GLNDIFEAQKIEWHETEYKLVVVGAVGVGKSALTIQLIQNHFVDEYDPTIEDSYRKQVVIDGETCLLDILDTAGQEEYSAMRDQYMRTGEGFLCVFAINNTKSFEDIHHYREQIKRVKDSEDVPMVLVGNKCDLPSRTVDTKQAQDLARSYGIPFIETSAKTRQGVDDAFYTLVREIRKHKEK

| Compound | IC50 [1] [µM] | IC50 [2] [µM] | IC50 [3] [µM] | IC50 [4] [µM] |
| --- | --- | --- | --- | --- |
| F[C@H]1CN2CCC[C@@]2(COc2nc(N3C[C@H]4CC[C@@H](C3)N4)c3c(n2)C2(CC2)c2c-3ccnc2-c2c(C3CC3)c(Cl)cc3[nH]ncc23)C1 (single isomer, unassigned) [Ex-115] | 0.009 | 2.05 | 2.12 | 0.523 |
| F/C=C1\CN2CCC[C@@]2(COc2nc(N3C[C@H]4CC[C@@H](C3)N4)c3c(n2)C2(CC2)c2c-3ccnc2-c2c(C3CC3)c(Cl)cc3[nH]ncc23)C1 (single isomer, unassigned) [Ex-116] | 0.00338 | 0.772 | 0.804 | 0.373 |
| Fc1ccc2cc3[nH]ncc3c(-c3nccc4c3C3(CC3)c3nc(OC[C@@]56CCCN5C[C@H](F)C6)nc(N5C[C@H]6CC[C@@H](C5)N6)c3-4)c2c1Cl (single isomer, unassigned) [Ex-117] | 0.0024 | 0.369 | 0.859 | 0.189 |
| Cc1cc2[nH]ncc2c(-c2nccc3c2sc2nc(OCCC4CCS(=O)(=O)CC4)nc(N4C[C@H]5CC[C@@H](C4)N5)c23)c1C(F)(F)F [Ex-41, 4-(2-((4-((1R,5S)-3,8-diazabicyclo[3.2.1]octan-3-yl)-8-(6-methyl-5-(trifluoromethyl)-1H-indazol-4-yl)pyrido[4′,3′:4,5]thieno[2,3-d]pyrimidin-2-yl)oxy)ethyl)tetrahydro-2H-thiopyran 1,1-dioxide] | 4.64 | – | – | > 30 |
| CCOC1(COc2nc(N3C[C@H]4CC[C@@H](C3)N4)c3c(n2)sc2c(-c4c(C(F)(F)F)c(C)cc5[nH]ncc45)nccc23)CCOC1 (stereo partly drawn) [Ex-42, 4-((1R,5S)-3,8-diazabicyclo[3.2.1]octan-3-yl)-2-((3-ethoxytetrahydrofuran-3-yl)methoxy)-8-(6-methyl-5-(trifluoromethyl)-1H-indazol-4-yl)pyrido[4′,3′:4,5]thieno[2,3-d]pyrimidine] | 3.1 | – | – | 6.52 |
| COC1(COc2nc(N3C[C@H]4CC[C@@H](C3)N4)c3c(n2)sc2c(-c4c(C(F)(F)F)c(C)cc5[nH]ncc45)nccc23)CCOC1 (stereo partly drawn) [Ex-44, 4-((1R,5S)-3,8-diazabicyclo[3.2.1]octan-3-yl)-2-((3-methoxytetrahydrofuran-3-yl)methoxy)-8-(6-methyl-5-(trifluoromethyl)-1H-indazol-4-yl)pyrido[4′,3′:4,5]thieno[2,3-d]pyrimidine] | 2.64 | – | – | 4.67 |
| Cc1cc2[nH]ncc2c(-c2nccc3c2sc2nc(OCC4(C#N)CCOC4)nc(N4C[C@H]5CC[C@@H](C4)N5)c23)c1C(F)(F)F (stereo partly drawn) [Ex-49, 3-(((4-((1R,5S)-3,8-diazabicyclo[3.2.1]octan-3-yl)-8-(6-methyl-5-(trifluoromethyl)-1H-indazol-4-yl)pyrido[4′,3′:4,5]thieno[2,3-d]pyrimidin-2-yl)oxy)methyl)tetrahydrofuran-3-carbonitrile] | 1.46 | – | – | 5.98 |
| Cc1cc2[nH]ncc2c(-c2nccc3c2sc2nc(OCC4CCCN(S(C)(=O)=O)C4)nc(N4C[C@H]5CC[C@@H](C4)N5)c23)c1C(F)(F)F (stereo partly drawn) [Ex-50, 4-((1R,5S)-3,8-diazabicyclo[3.2.1]octan-3-yl)-8-(6-methyl-5-(trifluoromethyl)-1H-indazol-4-yl)-2-((1-(methylsulfonyl)piperidin-3-yl)methoxy)pyrido[4′,3′:4,5]thi-eno[2,3-d]pyrimidine] | 2.38 | – | – | > 30 |

The remaining lines, values ahead:

| IC50 [1] [µM] | IC50 [2] [µM] | IC50 [3] [µM] | IC50 [4] [µM] | Compound |
| --- | --- | --- | --- | --- |
| 2.18 | – | – | 6.83 | Cc1cc2[nH]ncc2c(-c2nccc3c2sc2nc(OCC45COC(C4)C5)nc(N4C[C@H]5CC[C@@H](C4)N5)c23)c1C(F)(F)F [Ex-43, 2-((2-oxabicyclo[2.1.1]hexan-4-yl)methoxy)-4-((1R,5S)-3,8-diazabicyclo[3.2.1]octan-3-yl)-8-(6-methyl-5-(trifluoromethyl)-1H-indazol-4-yl)pyrido[4′,3′:4,5]thieno[2,3-d]pyrimidine] |
| 3.01 | – | – | 4.87 | Cc1cc2[nH]ncc2c(-c2nccc3c2sc2nc(OC[C@H]4C[C@H](C#N)C4)nc(N4C[C@H]5CC[C@@H](C4)N5)c23)c1C(F)(F)F [Ex-45, (1R,3r)-3-(((4-((1R,5S)-3,8-diazabicyclo[3.2.1]octan-3-yl)-8-(6-methyl-5-(trifluoromethyl)-1H-indazol-4-yl)pyrido[4′,3′:4,5]thieno[2,3-d]pyrimidin-2-yl)oxy)methyl)cyclobutane-1-carbonitrile] |
| 2.81 | – | – | 12.6 | Cc1cc2[nH]ncc2c(-c2nccc3c2sc2nc(OCC4(C)CCCO4)nc(N4C[C@H]5CC[C@@H](C4)N5)c23)c1C(F)(F)F (stereo partly drawn) [Ex-46, 4-((1R,5S)-3,8-diazabicyclo[3.2.1]octan-3-yl)-8-(6-methy1-5-(trifluoromethyl)-1H-indazol-4-yl)-2-((2-methyltetrahydrofuran-2-yl)methoxy)pyrido[4′,3′:4,5]thi-eno[2,3-d]pyrimidine] |
| 3.13 | – | – | 11.3 | Cc1cc2[nH]ncc2c(-c2nccc3c2sc2nc(OC[C@H]4CCCO4)nc(N4C[C@H]5CC[C@@H](C4)N5)c23)c1C(F)(F)F [Ex-47, 4-((1R,5S)-3,8-diazabicyclo[3.2.1]octan-3-yl)-8-(6-methyl-5-(trifluoromethyl)-1H-indazol-4-yl)-2-(((R)-tetrahydrofuran-2-yl)methoxy)pyrido[4′,3′:4,5]thi-eno[2,3-d]pyrimidine] |
| 3.35 | – | – | 14.9 | Cc1cc2[nH]ncc2c(-c2nccc3c2sc2nc(OCC4COC(C)(C)CO4)nc(N4C[C@H]5CC[C@@H](C4)N5)c23)c1C(F)(F)F (stereo partly drawn) [Ex-48, 4-((1R,5S)-3,8-diazabicyclo[3.2.1]octan-3-yl)-2-((5,5-dimethy1-1,4-dioxan-2-yl)methoxy)-8-(6-methy1-5-(trifluoromethyl)-1H-indazol-4-yl)pyrido[4′,3′:4,5]thieno[2,3-d]pyrimidine] |
